The record followed here is patent US20230250060A1 (IFM Due, Inc., priority 2022, published 2023).

SMILES strings stand for the structures.

Broadly, the EC50 is the concentration at which the effect is half-maximal.

T1 sequence (Q86WV6 whole entry R71H/G230A/H232R/R293Q): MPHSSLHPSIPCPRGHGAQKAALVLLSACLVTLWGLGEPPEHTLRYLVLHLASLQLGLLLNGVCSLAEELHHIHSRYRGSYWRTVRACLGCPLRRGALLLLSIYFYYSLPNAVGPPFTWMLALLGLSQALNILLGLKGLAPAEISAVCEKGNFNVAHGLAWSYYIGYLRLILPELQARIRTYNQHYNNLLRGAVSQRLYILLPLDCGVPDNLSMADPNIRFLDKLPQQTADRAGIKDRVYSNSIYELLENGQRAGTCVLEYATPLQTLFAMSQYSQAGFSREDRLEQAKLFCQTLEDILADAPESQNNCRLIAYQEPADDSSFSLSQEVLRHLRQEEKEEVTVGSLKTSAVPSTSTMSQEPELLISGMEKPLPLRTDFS

This assay has as its target T1, STING (Homo sapiens, UniProt Q86WV6, G230A/H232R/R293Q/R71H).
T1 construct: host or cells: THP1-Dual KO-IFNAR2 cells
Description: STING reporter assay (luciferase) in THP1-Dual KO-IFNAR2 cells stimulated with 2′3′cGAMP. The note with it: 2′3′cGAMP 15 μM final, 24 h, luciferase reporter activity, read-out: Pharmaron, THP1_IFNAR2 STING 24 h Luci Normalized: GeoMean EC50. The assay is classed as cell-based. As for the experimental part:
STING pathway activation by the compounds described herein was measured using TTIP1-Dual™ cells (KO-IFNAR2).
TTIP1-Dual™ KO-IFNAR2 Cells (obtained from invivogen) were maintained in RPMI, 10% FCS, 5 ml P/S, 2 mM L-glut, 10 mM Hepes, and 1 mM sodium pyruvate. Compounds were spotted in empty 384 well tissue culture plates (Greiner 781182) by Echo for a final concentration of 0.0017-100 μM. Cells were plated into the TC plates at 40 μL per well, 2×10E6 cells/mL. For activation with STING ligand, 2′3′cGAMP (MW 718.38, obtained from Invivogen), was prepared in Optimem media.
The following solutions were prepared for each 1×384 plate: • Solution A: 2 mL Optimem with one of the following stimuli: • […] • Solution B: 2 mL Optimem with […] Lipofectamine 2000→Incubate 5 min at RT
2 mL of solution A and 2 ml Solution B was mixed and incubated for 20 min at room temperature (RT). 20 μL of transfection solution (A+B) was added on top of the plated cells, with a final 2′3′cGAMP concentration of 15 μM. The plates were then centrifuged immediately at 340 g for 1 minute, after which they were incubated at 37° C., 5% CO2, >98% humidity for 24 h. Luciferase reporter activity was then measured. EC50 values were calculated by using standard methods known in the art.
Luciferase reporter assay: 10 μL of supernatant from the assay was transferred to white 384-plate with flat bottom and squared wells. One pouch of QUANTI-Luc™ Plus was dissolved in 25 mL of water. 100 μL of QLC Stabilizer per 25 mL of QUANTI-Luc™ Plus solution was added. 50 μL of QUANTI-Luc™ Plus/QLC solution per well was then added. Luminescence was measured on a Platereader (e.g., Spectramax I3X (Molecular Devices GF3637001)).
Luciferase reporter activity was then measured. EC50 values were calculated by using standard methods known in the art.
`O=C(Nc1c[nH]c2ccc(COCc3ccc(C(F)(F)F)cc3)cc12)C12CC(F)(C1)C2` [Compound 134, 3-fluoro-N-(5-(((4-(trifluoromethyl)benzyl)oxy)methyl)-1H-indol-3-yl)bicyclo[1.1.1]pentane-1-carboxamide]: the 50% effective concentration (EC50) fell in the range of 0.2 to 1 µM.

With `O=C(Nc1c[nH]c2ccc(CCOc3ccc(C(F)(F)F)cc3)cc12)C12CC(C1)C2` [Compound 135], the EC50 was in the range of 0.2 to 1 µM. To `Cn1ccnc1C(=O)Nc1c[nH]c2ccc(OCc3ccc(C(F)(F)F)cc3)cc12` [Compound 136, 1-methyl-N-(5-((4-(trifluoromethyl)benzyl)oxy)-1H-indol-3-yl)-1H-imidazole-2-carboxamide] belongs 0.2 to 1 µM.

Turning to `O=C(Nc1c[nH]c2ccc(OCc3ccc(C(F)(F)F)cc3)cc12)c1ccn[nH]1` [Compound 137, N-(5-((4-(trifluoromethyl)benzyl)oxy)-1H-indol-3-yl)-1H-pyrazole-5-carboxamide], the EC50 lay within 0.2 to 1 µM. Consider `O=C(Nc1c[nH]c2ccc(OCc3ccc(C(F)(F)F)cc3)cc12)C12CC(F)(C1)C2` [Compound 138, 3-fluoro-N-(5-((4-(trifluoromethyl)benzyl)oxy)-1H-indol-3-yl)bicyclo[1.1.1]pentane-1-carboxamide], for which the 50% effective concentration (EC50) lay within 0.2 to 1 µM. On to `Cn1ccnc1C(=O)Nc1c[nH]c2ccc(O[C@H]3C[C@@H](c4ccc(C(F)(F)F)cc4)C3)cc12` [Compound 139, 1-methyl-N-(5-((1s,3s)-3-(4-(trifluoromethyl)phenyl)cyclobutoxy)-1H-indol-3-yl)-1H-imidazole-2-carboxamide], for which the EC50 was 0.2 to 1 µM. On to `Cn1ccnc1C(=O)Nc1c[nH]c2ccc(OCC[C@@H]3C[C@@H]4CN(CC(F)(F)F)C[C@@H]4C3)cc12` [Compound 140, 1-methyl-N-(5-(2-((3aR,5r,6aS)-2-(2,2,2-trifluoroethyl)octahydrocyclopenta[c]pyrrol-5-yl)ethoxy)-1H-indol-3-yl)-1H-imidazole-2-carboxamide], for which the concentration giving a half-maximal response (EC50) was in the range of 0.2 to 1 µM. As to `O=C(Nc1c[nH]c2ccc(OCc3ccc(C(F)(F)F)cc3)cc12)c1nccs1` [Compound 141, N-(5-((4-(trifluoromethyl)benzyl)oxy)-1H-indol-3-yl)thiazole-2-carboxamide], the concentration giving a half-maximal response (EC50) was 0.2 to 1 µM. To `CC12CC(C(=O)Nc3c[nH]c4ccc(OCC[C@@H]5C[C@@H]6CN(CC(F)(F)F)C[C@@H]6C5)cc34)(C1)C2` [Compound 142, 3-methyl-N-(5-(2-((3aR,5r,6aS)-2-(2,2,2-trifluoroethyl)octahydrocyclopenta[c]pyrrol-5-yl)ethoxy)-1H-indol-3-yl)bicyclo[1.1.1]pentane-1-carboxamide] belongs 0.2 to 1 µM. To `Cn1ccnc1C(=O)Nc1c[nH]c2ccc(CCOc3ccc(C(F)(F)F)cc3)cc12` [Compound 143, 1-methyl-N-(5-(2-(4-(trifluoromethyl)phenoxy)ethyl)-1H-indol-3-yl)-1H-imidazole-2-carboxamide] belongs 0.04 to 0.2 µM. With `O=C(Nc1c[nH]c2ccc(CCOc3ccc(C(F)(F)F)cc3)cc12)C1CC2(CCC2)C1` [Compound 144, N-(5-(2-(4-(trifluoromethyl)phenoxy)ethyl)-1H-indol-3-yl)spiro[3.3]heptane-2-carboxamide] the figure was 0.04 to 0.2 µM; with `O=C(Nc1c[nH]c2ccc(CCOc3ccc(C(F)(F)F)cc3)cc12)c1ncco1` [Compound 145, N-(5-(2-(4-(trifluoromethyl)phenoxy)ethyl)-1H-indol-3-yl)oxazole-2-carboxamide], 0.2 to 1 µM; with `Cn1ccnc1C(=O)Nc1c[nH]c2ccc(OCCc3ccc(C(F)(F)F)cc3)cc12` [Compound 146, 1-methyl-N-(5-(4-(trifluoromethyl)phenethoxy)-1H-indol-3-yl)-1H-imidazole-2-carboxamide], 0.04 to 0.2 µM.

On to `O=C(Nc1c[nH]c2ccc(OCc3ccc(C(F)(F)F)cc3)cc12)c1ccncc1` [Compound 147, N-(5-((4-(trifluoromethyl)benzyl)oxy)-1H-indol-3-yl)isonicotinamide], for which the EC50 was 0.2 to 1 µM. With `O=C(Nc1c[nH]c2ccc(OCc3ccc(C(F)(F)F)cc3)cc12)c1cccnc1` [Compound 148, N-(5-((4-(trifluoromethyl)benzyl)oxy)-1H-indol-3-yl)nicotinamide] the figure was 0.2 to 1 µM; with `O=C(Nc1c[nH]c2ccc(OCc3ccc(C(F)(F)F)cc3)cc12)c1ccccn1` [Compound 149, N-(5-((4-(trifluoromethyl)benzyl)oxy)-1H-indol-3-yl)picolinamide], 5 to 100 µM. To `O=C(CC1CC1)Nc1c[nH]c2ccc(OCc3ccc(C(F)(F)F)cc3)cc12` [Compound 150, 2-cyclopropyl-N-(5-((4-(trifluoromethyl)benzyl)oxy)-1H-indol-3-yl)acetamide] belongs 0.2 to 1 µM; to `O=C(Nc1c[nH]c2ccc(OCc3ccc(C(F)(F)F)cc3)cc12)C1CC2(CCC2)C1` [Compound 151, N-(5-((4-(trifluoromethyl)benzyl)oxy)-1H-indol-3-yl)spiro[3.3]heptane-2-carboxamide], 0.2 to 1 µM. As to `O=C(Nc1c[nH]c2ccc(OCc3ccc(C(F)(F)F)cc3)cc12)c1ncccc1F` [Compound 152, 3-fluoro-N-(5-((4-(trifluoromethyl)benzyl)oxy)-1H-indol-3-yl)picolinamide], the EC50 is 0.2 to 1 µM.

Take `Cc1noc(C)c1C(=O)Nc1c[nH]c2ccc(OCc3ccc(C(F)(F)F)cc3)cc12` [Compound 153, 3,5-dimethyl-N-(5-((4-(trifluoromethyl)benzyl)oxy)-1H-indol-3-yl)isoxazole-4-carboxamide]: the half-maximal effective concentration (EC50) lay within 0.2 to 1 µM. With `O=C(Nc1c[nH]c2ccc(OCc3ccc(C(F)(F)F)cc3)cc12)c1cncs1` [Compound 154, N-(5-((4-(trifluoromethyl)benzyl)oxy)-1H-indol-3-yl)thiazole-5-carboxamide] the figure was 0.2 to 1 µM.

As to `O=C(Nc1c[nH]c2ccc(O[C@H]3C[C@@H](c4ccc(C(F)(F)F)cc4)C3)cc12)C1CC2(CCC2)C1` [Compound 155, N-(5-((1s,3s)-3-(4-(trifluoromethyl)phenyl)cyclobutoxy)-1H-indol-3-yl)spiro[3.3]heptane-2-carboxamide], the concentration giving a half-maximal response (EC50) was 0.2 to 1 µM.

Consider `O=C(Nc1c[nH]c2ccc(O[C@H]3C[C@@H](c4ccc(C(F)(F)F)cc4)C3)cc12)C1CC2(CC2)C1` [Compound 156, N-(5-((1s,3s)-3-(4-(trifluoromethyl)phenyl)cyclobutoxy)-1H-indol-3-yl)spiro[2.3]hexane-5-carboxamide], for which the 50% effective concentration (EC50) was 0.2 to 1 µM. With `O=C(Nc1c[nH]c2ccc(OCC[C@@H]3C[C@@H]4CN(CC(F)(F)F)C[C@@H]4C3)cc12)C1CC2(CCC2)C1` [Compound 157, N-(5-(2-((3aR,5r,6aS)-2-(2,2,2-trifluoroethyl)octahydrocyclopenta[c]pyrrol-5-yl)ethoxy)-1H-indol-3-yl)spiro[3.3]hexane-2-carboxamide], the EC50 lay in the range of 0.2 to 1 µM. To `O=C(Nc1c[nH]c2ccc(OCC[C@@H]3C[C@@H]4CN(CC(F)(F)F)C[C@@H]4C3)cc12)C1CC12CC2` (stereo partly drawn) [Compound 158, N-(5-(2-((3aR,5r,6aS)-2-(2,2,2-trifluoroethyl)octahydrocyclopenta[c]pyrrol-5-yl)ethoxy)-1H-indol-3-yl)spiro[2.2]pentane-1-carboxamide] belongs 1 to 5 µM. To `Cc1oncc1C(=O)Nc1c[nH]c2ccc(OCC[C@@H]3C[C@@H]4CN(CC(F)(F)F)C[C@@H]4C3)cc12` [Compound 159, 5-methyl-N-(5-(2-((3aR,5r,6aS)-2-(2,2,2-trifluoroethyl)octahydrocyclopenta[c]pyrrol-5-yl)ethoxy)-1H-indol-3-yl)isoxazole-4-carboxamide] belongs 5 to 100 µM. Take `O=C(Nc1c[nH]c2ccc(CCOc3ccc(C(F)(F)F)cc3)cc12)c1ccn[nH]1` [Compound 160, N-(5-(2-(4-(trifluoromethyl)phenoxy)ethyl)-1H-indol-3-yl)-1H-pyrazole-5-carboxamide]: the concentration giving a half-maximal response (EC50) fell in the range of 0.2 to 1 µM. With `O=C(Nc1c[nH]c2ccc(OCCc3ccc(C(F)(F)F)cc3)cc12)c1ncco1` [Compound 161, N-(5-(4-(trifluoromethyl)phenethoxy)-1H-indol-3-yl)oxazole-2-carboxamide] the figure was 0.2 to 1 µM.

`Cn1nccc1C(=O)Nc1c[nH]c2ccc(OCc3ccc(C(F)(F)F)cc3)cc12` [Compound 162, 1-methyl-N-(5-((4-(trifluoromethyl)benzyl)oxy)-1H-indol-3-yl)-1H-pyrazole-5-carboxamide]: the concentration for a half-maximal effect (EC50) was 0.2 to 1 µM. With `CC12CC(C(=O)Nc3c[nH]c4ccc(OCc5ccc(C(F)(F)F)cc5)cc34)(C1)C2` [Compound 163, 3-methyl-N-(5-((4-(trifluoromethyl)benzyl)oxy)-1H-indol-3-yl)bicyclo[1.1.1]pentane-1-carboxamide] the figure was 0.2 to 1 µM.
